# What was measured:
# [1] = test system: Botryotinia fuckeliana (Botrytis cinerea); assay: Botryotinia fuckeliana (Botrytis cinerea) / liquid culture (gray mould); assay type: cell-based; details: 72 h, read-out: control of Botryotinia fuckeliana
# Fusarium culmorum [2] = assay: microbe, parasite or virus in culture; assay type: cell-based; details: read-out: control of Fusarium culmorum
# Fusarium culmorum [3] = assay: whole plant or invertebrate; assay type: in vivo; details: in Triticum aestivum, read-out: control of Fusarium culmorum
# [4] = test system: Glomerella lagenarium (Colletotrichum lagenarium); assay: Glomerella lagenarium (Colletotrichum lagenarium) / liquid culture (anthracnose); assay type: cell-based; details: Colletotrichum orbiculare; read-out: control of Glomerella lagenarium
# [5] = test system: Magnaporthe grisea (Pyricularia oryzae); assay: microbe, parasite or virus in culture; assay type: cell-based; details: 72 h, read-out: control of Magnaporthe grisea
# Sclerotinia sclerotiorum = Sclerotinia sclerotiorum / liquid culture (cottony rot); details: 72 h, read-out: control of Sclerotinia sclerotiorum
# Description: Sclerotinia sclerotiorum/Liquid Culture (Cottony Rot)
# Mycelia fragments of a newly grown liquid culture of the fungus are directly mixed into nutrient broth (Vogels broth). After placing a (DMSO) solution of test compound into a microtiter plate (96-well format) the nutrient broth containing the fungal material is added. The test plates are incubated at 24° C. and the inhibition of growth is determined photometrically 3-4 days after application.
# Gaeumannomyces graminis = Gaeumannomyces graminis / liquid culture (take-all of cereals); assay type: cell-based; details: read-out: control of Gaeumannomyces graminis
# [6] = test system: Monographella nivalis (Microdochium nivale); assay: Monographella nivalis (Microdochium nivale) / liquid culture (foot rot cereals); assay type: cell-based; details: 96 h, read-out: control of Monographella nivalis
smiles,measurement,setting,value
"CC(C)CC(Cc1ccccc1)NC(=O)c1cnc2c(F)cccc2c1 (stereo not drawn) [Compound E-29, N-(1-benzyl-3-methyl-butyl)-8-fluoro-quinoline-3-carboxamide]",inhibition of growth at 200 ppm,[1],≥ 80%
same,inhibition of growth at 200 ppm,Fusarium culmorum [2],≥ 80%
same,pest or weed control at 200 ppm,Fusarium culmorum [3],≥ 80%
same,inhibition of growth at 200 ppm,[4],≥ 80%
same,inhibition of growth at 200 ppm,[5],≥ 80%
same,melting point,,136 to 139 °C
same,inhibition of growth at 20 ppm,Sclerotinia sclerotiorum,≥ 80%
"Cc1ccccc1CC(C)(CC(C)C)NC(=O)c1cnc2c(F)cccc2c1 (stereo not drawn) [Compound E-23, N-[1,3-dimethyl-1-(o-tolylmethyl)butyl]-8-fluoro-quinoline-3-carboxamide]",inhibition of growth at 200 ppm,[1],≥ 80%
same,inhibition of growth at 200 ppm,Fusarium culmorum [2],≥ 80%
same,pest or weed control at 200 ppm,Fusarium culmorum [3],≥ 80%
same,inhibition of growth at 200 ppm,[4],≥ 80%
same,inhibition of growth at 200 ppm,Gaeumannomyces graminis,≥ 80%
same,inhibition of growth at 200 ppm,[6],≥ 80%
same,inhibition of growth at 200 ppm,[5],≥ 80%
same,melting point,,125 to 126 °C
"CC(C)CC(C)(Cc1cccc(Br)c1)NC(=O)c1cnc2c(F)cccc2c1 (stereo not drawn) [Compound E-45, N-[1-[(3-bromophenyl)methyl]-1,3-dimethyl-butyl]-8-fluoro-quinoline-3-carboxamide]",inhibition of growth at 200 ppm,[1],≥ 80%
same,inhibition of growth at 200 ppm,Fusarium culmorum [2],≥ 80%
same,inhibition of growth at 200 ppm,[4],≥ 80%
same,inhibition of growth at 200 ppm,Gaeumannomyces graminis,≥ 80%
same,inhibition of growth at 200 ppm,[6],≥ 80%
same,inhibition of growth at 200 ppm,[5],≥ 80%
same,melting point,,87 to 89 °C
"CC(C)(C)C[C@@](C)(Cc1ccccc1)NC(=O)c1cnc2c(F)cccc2c1 [Compound F-18, N-[(1S)-1-benzyl-1,3,3-trimethyl-butyl]-8-fluoro-quinoline-3-carboxamide]",inhibition of growth at 200 ppm,[1],≥ 80%
same,inhibition of growth at 200 ppm,Fusarium culmorum [2],≥ 80%
same,pest or weed control at 200 ppm,Fusarium culmorum [3],≥ 80%
same,inhibition of growth at 200 ppm,[4],≥ 80%
same,inhibition of growth at 200 ppm,Gaeumannomyces graminis,≥ 80%
same,inhibition of growth at 200 ppm,[6],≥ 80%
"CCCC(C)(Cc1ccccc1)NC(=O)c1cnc2ccccc2c1 (stereo not drawn) [Compound E-43, N-(1-benzyl-1-methyl-butyl)quinoline-3-carboxamide]",inhibition of growth at 200 ppm,[1],≥ 80%
same,inhibition of growth at 200 ppm,Fusarium culmorum [2],≥ 80%
same,pest or weed control at 200 ppm,Fusarium culmorum [3],≥ 80%
same,inhibition of growth at 200 ppm,[4],≥ 80%
same,inhibition of growth at 200 ppm,Gaeumannomyces graminis,≥ 80%
same,inhibition of growth at 200 ppm,[6],≥ 80%
same,inhibition of growth at 200 ppm,[5],≥ 80%
"CCCC(C)(Cc1ccccc1)NC(=O)c1cnc2c(F)cccc2c1 (stereo not drawn) [Compound E-42, N-(1-benzyl-1-methyl-butyl)-8-fluoro-quinoline-3-carboxamide]",inhibition of growth at 200 ppm,[1],≥ 80%
same,inhibition of growth at 200 ppm,Fusarium culmorum [2],≥ 80%
same,pest or weed control at 200 ppm,Fusarium culmorum [3],≥ 80%
same,inhibition of growth at 200 ppm,[4],≥ 80%
same,inhibition of growth at 200 ppm,Gaeumannomyces graminis,≥ 80%
same,inhibition of growth at 200 ppm,[6],≥ 80%
same,inhibition of growth at 200 ppm,[5],≥ 80%
"CC(C)CC(C)(Cc1cccc(C#N)c1)NC(=O)c1cnc2c(F)cccc2c1 (stereo not drawn) [Compound E-46, N-[1-[(3-cyanophenyl)methyl]-1,3-dimethyl-butyl]-8-fluoro-quinoline-3-carboxamide]",inhibition of growth at 200 ppm,[1],≥ 80%
same,inhibition of growth at 200 ppm,Fusarium culmorum [2],≥ 80%
same,inhibition of growth at 200 ppm,[4],≥ 80%
same,inhibition of growth at 200 ppm,Gaeumannomyces graminis,≥ 80%
same,inhibition of growth at 200 ppm,[5],≥ 80%
same,melting point,,45 to 46 °C
"C=CCC(C)(Cc1ccccc1)NC(=O)c1cnc2c(F)cccc2c1 (stereo not drawn) [Compound E-38, N-(1-benzyl-1-methyl-but-3-enyl)-8-fluoro-quinoline-3-carboxamide]",inhibition of growth at 200 ppm,[1],≥ 80%
same,inhibition of growth at 200 ppm,Fusarium culmorum [2],≥ 80%
same,pest or weed control at 200 ppm,Fusarium culmorum [3],≥ 80%
same,inhibition of growth at 200 ppm,[4],≥ 80%
same,inhibition of growth at 200 ppm,Gaeumannomyces graminis,≥ 80%
same,inhibition of growth at 200 ppm,[6],≥ 80%
same,inhibition of growth at 200 ppm,[5],≥ 80%
"CC(C)CC(C)(Cc1ccccc1)NC(=O)c1cnc2cc(F)ccc2c1 (stereo not drawn) [Compound E-40, N-(1-benzyl-1,3-dimethyl-butyl)-7-fluoro-quinoline-3-carboxamide]",inhibition of growth at 200 ppm,[1],≥ 80%
same,inhibition of growth at 200 ppm,Fusarium culmorum [2],≥ 80%
same,inhibition of growth at 200 ppm,[4],≥ 80%
same,inhibition of growth at 200 ppm,Gaeumannomyces graminis,≥ 80%
same,inhibition of growth at 200 ppm,[5],≥ 80%
same,melting point,,142 to 144 °C
"C=C(C)CC(Cc1ccccc1)(NC(=O)c1cnc2c(F)cccc2c1)C1CC1 (stereo not drawn) [Compound E-53, N-(1-benzyl-1-cyclopropyl-3-methyl-but-3-enyl)-8-fluoro-quinoline-3-carboxamide]",inhibition of growth at 200 ppm,[1],≥ 80%
same,inhibition of growth at 200 ppm,Fusarium culmorum [2],≥ 80%
same,inhibition of growth at 200 ppm,[4],≥ 80%
same,inhibition of growth at 200 ppm,Gaeumannomyces graminis,≥ 80%
same,inhibition of growth at 200 ppm,[6],≥ 80%
same,inhibition of growth at 200 ppm,[5],≥ 80%
"CC(C)CC(C)(Cc1ccccc1)NC(=O)c1cnc2c(F)c(F)ccc2c1 (stereo not drawn) [Compound E-48, N-(1-benzyl-1,3-dimethyl-butyl)-7,8-difluoro-quinoline-3-carboxamide]",inhibition of growth at 200 ppm,[1],≥ 80%
same,inhibition of growth at 200 ppm,Fusarium culmorum [2],≥ 80%
same,pest or weed control at 200 ppm,Fusarium culmorum [3],≥ 80%
same,inhibition of growth at 200 ppm,[4],≥ 80%
same,inhibition of growth at 200 ppm,Gaeumannomyces graminis,≥ 80%
same,inhibition of growth at 200 ppm,[6],≥ 80%
same,inhibition of growth at 200 ppm,[5],≥ 80%
same,melting point,,114 to 116 °C
"Cc1c(C(=O)NC(C)(Cc2ccccc2)CC(C)C)cnc2c(F)cccc12 (stereo not drawn) [Compound E-15, N-(1-benzyl-1,3-dimethyl-butyl)-8-fluoro-4-methyl-quinoline-3-carboxamide]",inhibition of growth at 200 ppm,[1],≥ 80%
same,inhibition of growth at 200 ppm,Fusarium culmorum [2],≥ 80%
same,pest or weed control at 200 ppm,Fusarium culmorum [3],≥ 80%
same,inhibition of growth at 200 ppm,[4],≥ 80%
same,inhibition of growth at 200 ppm,[5],≥ 80%
same,melting point,,92 to 94 °C
same,inhibition of growth at 20 ppm,Sclerotinia sclerotiorum,≥ 80%
"CC(C)CC(C)(Cc1ccccc1)NC(=S)c1cnc2c(F)cccc2c1 (stereo not drawn) [Compound E-114, N-(1-benzyl-1,3-dimethyl-butyl)-8-fluoro-quinoline-3-carbothioamide]",inhibition of growth at 200 ppm,[1],≥ 80%
same,inhibition of growth at 200 ppm,Fusarium culmorum [2],≥ 80%
same,pest or weed control at 200 ppm,Fusarium culmorum [3],≥ 80%
same,inhibition of growth at 200 ppm,[4],≥ 80%
same,inhibition of growth at 200 ppm,[6],≥ 80%
same,inhibition of growth at 200 ppm,[5],≥ 80%
same,melting point,,150 to 153 °C
same,inhibition of growth at 20 ppm,Sclerotinia sclerotiorum,≥ 80%
"CC(C)CC(C)(Cc1cccc(Cl)c1)NC(=O)c1cnc2c(F)cccc2c1 (stereo not drawn) [Compound E-27, N-[1-[(3-chlorophenyl)methyl]-1,3-dimethyl-butyl]-8-fluoro-quinoline-3-carboxamide]",inhibition of growth at 200 ppm,[1],≥ 80%
same,inhibition of growth at 200 ppm,Fusarium culmorum [2],≥ 80%
same,inhibition of growth at 200 ppm,[4],≥ 80%
same,inhibition of growth at 200 ppm,Gaeumannomyces graminis,≥ 80%
same,inhibition of growth at 200 ppm,[6],≥ 80%
same,inhibition of growth at 200 ppm,[5],≥ 80%
same,melting point,,41 to 42 °C
"CC(C)CC(C)(Cc1ccccc1F)NC(=O)c1cnc2c(F)cccc2c1 (stereo not drawn) [Compound E-21, 8-fluoro-N-[1-[(2-fluorophenyl)methyl]-1,3-dimethyl-butyl]quinoline-3-carboxamide]",inhibition of growth at 200 ppm,[1],≥ 80%
same,inhibition of growth at 200 ppm,Fusarium culmorum [2],≥ 80%
same,pest or weed control at 200 ppm,Fusarium culmorum [3],≥ 80%
same,inhibition of growth at 200 ppm,[4],≥ 80%
same,inhibition of growth at 200 ppm,Gaeumannomyces graminis,≥ 80%
same,inhibition of growth at 200 ppm,[6],≥ 80%
same,inhibition of growth at 200 ppm,[5],≥ 80%
same,melting point,,105 to 106 °C
"CC(C)C[C@@H](Cc1ccccc1)NC(=O)c1cnc2c(F)cccc2c1 [Compound F-4, N-[(1S)-1-benzyl-3-methyl-butyl]-8-fluoro-quinoline-3-carboxamide]",inhibition of growth at 200 ppm,[1],≥ 80%
same,inhibition of growth at 200 ppm,Fusarium culmorum [2],≥ 80%
same,pest or weed control at 200 ppm,Fusarium culmorum [3],≥ 80%
same,inhibition of growth at 200 ppm,[4],≥ 80%
same,inhibition of growth at 200 ppm,Gaeumannomyces graminis,≥ 80%
same,inhibition of growth at 200 ppm,[6],≥ 80%
"O=C(NC(CCC(F)(F)F)Cc1ccccc1)c1cnc2c(Cl)cccc2c1 (stereo not drawn) [Compound E-17, N-(1-benzyl-4,4,4-trifluoro-butyl)-8-chloro-quinoline-3-carboxamide]",inhibition of growth at 200 ppm,[1],≥ 80%
same,inhibition of growth at 200 ppm,Fusarium culmorum [2],≥ 80%
same,pest or weed control at 200 ppm,Fusarium culmorum [3],≥ 80%
same,inhibition of growth at 200 ppm,Gaeumannomyces graminis,≥ 80%
same,inhibition of growth at 200 ppm,[5],≥ 80%
same,melting point,,163 to 167 °C
"CC(C)(C)CC(C)(Cc1ccccc1)NC(=O)c1cnc2c(F)cccc2c1 (stereo not drawn) [Compound E-34, N-(1-benzyl-1,3,3-trimethyl-butyl)-8-fluoro-quinoline-3-carboxamide]",inhibition of growth at 200 ppm,[1],≥ 80%
same,inhibition of growth at 200 ppm,Fusarium culmorum [2],≥ 80%
same,inhibition of growth at 200 ppm,[4],≥ 80%
same,inhibition of growth at 200 ppm,[6],≥ 80%
same,inhibition of growth at 200 ppm,[5],≥ 80%
same,melting point,,48 to 50 °C
same,inhibition of growth at 20 ppm,Sclerotinia sclerotiorum,≥ 80%
"Cc1cccc2cc(C(=O)NC(CCC(F)(F)F)Cc3ccccc3)cnc12 (stereo not drawn) [Compound E-19, N-(1-benzyl-4,4,4-trifluoro-butyl)-8-methyl-quinoline-3-carboxamide]",inhibition of growth at 200 ppm,[1],≥ 80%
same,inhibition of growth at 200 ppm,Fusarium culmorum [2],≥ 80%
same,pest or weed control at 200 ppm,Fusarium culmorum [3],≥ 80%
same,inhibition of growth at 200 ppm,Gaeumannomyces graminis,≥ 80%
same,inhibition of growth at 200 ppm,[5],≥ 80%
same,melting point,,158 to 161 °C
"C=CCC(C)(Cc1ccccc1)NC(=O)c1cnc2ccccc2c1 (stereo not drawn) [Compound E-37, N-(1-benzyl-1-methyl-but-3-enyl)quinoline-3-carboxamide]",inhibition of growth at 200 ppm,[1],≥ 80%
same,inhibition of growth at 200 ppm,Fusarium culmorum [2],≥ 80%
same,inhibition of growth at 200 ppm,[4],≥ 80%
same,inhibition of growth at 200 ppm,Gaeumannomyces graminis,≥ 80%
same,inhibition of growth at 200 ppm,[6],≥ 80%
same,inhibition of growth at 200 ppm,[5],≥ 80%
"CC(C)CC(C)(Cc1ccccc1Cl)NC(=O)c1cnc2c(F)cccc2c1 (stereo not drawn) [Compound E-22, N-[1-[(2-chlorophenyl)methyl]-1,3-dimethyl-butyl]-8-fluoro-quinoline-3-carboxamide]",inhibition of growth at 200 ppm,[1],≥ 80%
same,inhibition of growth at 200 ppm,Fusarium culmorum [2],≥ 80%
same,pest or weed control at 200 ppm,Fusarium culmorum [3],≥ 80%
same,inhibition of growth at 200 ppm,[4],≥ 80%
same,inhibition of growth at 200 ppm,Gaeumannomyces graminis,≥ 80%
same,inhibition of growth at 200 ppm,[6],≥ 80%
same,inhibition of growth at 200 ppm,[5],≥ 80%
same,melting point,,109 to 110 °C

# From patent publication US10477864B2, “Microbiocidal quinoline (thio)carboxamide derivatives” (priority 2016, dated 2019)
